“And” between values parts separate entries of the source, which are not always exact repeats. Equal entries are not always repeated. Toxic doses and inconclusive results are not listed.
Tested on: BDF1 mice, P388 leukemia ip, median survival T/C
Test: NCI In Vivo Anticancer Drug Screen. Data for tumor model P388 Leukemia (intraperitoneal) in B6D2F1 (BDF1) mice
Conditions: endpoint: median survival time, higher = longer survival
Procedure, shortened: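 Each value expresses how treatment altered survival: treated-mouse outcome over vehicle-mouse outcome, both groups bearing the transplanted tumour.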

[1] = dose: 12.5 mg/kg/injection, schedule: Q01DX009 (ip), vehicle: Klucel (hydroxypropylcellulose) (HPC)
[2] = dose: 25.0 mg/kg/injection, schedule: Q01DX009 (ip), vehicle: Klucel (hydroxypropylcellulose) (HPC)
[3] = dose: 50.0 mg/kg/injection, schedule: Q01DX009 (ip), vehicle: Klucel (hydroxypropylcellulose) (HPC)
[4] = dose: 400.0 mg/kg/injection, schedule: Q01DX009 (ip), vehicle: Klucel (hydroxypropylcellulose) (HPC)
[5] = dose: 50.0 mg/kg/injection, schedule: Q04DX003 (ip), vehicle: Klucel (hydroxypropylcellulose) (HPC)
[6] = dose: 100.0 mg/kg/injection, schedule: Q04DX003 (ip), vehicle: Klucel (hydroxypropylcellulose) (HPC)
[7] = dose: 100.0 mg/kg/injection, schedule: Q01DX009 (ip), vehicle: Klucel (hydroxypropylcellulose) (HPC)
[8] = dose: 200.0 mg/kg/injection, schedule: Q04DX003 (ip), vehicle: Klucel (hydroxypropylcellulose) (HPC)
[9] = dose: 400.0 mg/kg/injection, schedule: Q04DX003 (ip), vehicle: saline with Tween-80

Structure (SMILES): CSc1nc([N+](=O)[O-])c2cnccn12
- T/C (dose: 5.0 mg/kg/injection, schedule: Q04DX003 (ip), vehicle: saline with Tween-80): 103 % of control
- T/C (dose: 6.25 mg/kg/injection, schedule: Q01DX009 (ip), vehicle: saline with Tween-80): 97 % of control
- T/C (dose: 10.0 mg/kg/injection, schedule: Q04DX003 (ip), vehicle: saline with Tween-80): 99 % of control
- T/C (dose: 12.5 mg/kg/injection, schedule: Q01DX009 (ip), vehicle: saline with Tween-80): 99 % of control
- T/C (dose: 12.5 mg/kg/injection, schedule: Q04DX003 (ip), vehicle: saline with Tween-80): 101 % of control
- T/C (dose: 20.0 mg/kg/injection, schedule: Q04DX003 (ip), vehicle: saline with Tween-80): 90 % of control
- T/C (dose: 25.0 mg/kg/injection, schedule: Q01DX009 (ip), vehicle: saline with Tween-80): 96 % of control
- T/C (dose: 25.0 mg/kg/injection, schedule: Q04DX003 (ip), vehicle: saline with Tween-80): 92 % of control
- T/C (dose: 40.0 mg/kg/injection, schedule: Q04DX003 (ip), vehicle: saline with Tween-80): 114 % of control
- T/C (dose: 50.0 mg/kg/injection, schedule: Q04DX003 (ip), vehicle: saline with Tween-80): 89 % of control

Structure (SMILES): O=C(O)/C=C\C(=O)Nc1ccccc1
- T/C (dose: 6.25 mg/kg/injection, schedule: Q01DX009 (ip), vehicle: Klucel (hydroxypropylcellulose) (HPC)): 105 % of control
- T/C [1]: 94 % of control
- T/C [2]: 94 % of control
- T/C [3]: 115 % of control
- T/C (dose: 200.0 mg/kg/injection, schedule: Q01DX009 (ip), vehicle: Klucel (hydroxypropylcellulose) (HPC)): 86 % of control
- T/C [4]: 95 % of control

Structure (SMILES): COc1ccc(C(CC(C)=O)c2c(O)c3ccccc3oc2=O)cc1OC (stereo not given)
- T/C (dose: 3.12 mg/kg/injection, schedule: Q04DX003 (ip), vehicle: water): 98 % of control
- T/C (dose: 6.25 mg/kg/injection, schedule: Q01DX009 (ip), vehicle: water): 100 % of control
- T/C (dose: 6.25 mg/kg/injection, schedule: Q04DX003 (ip), vehicle: water): 101 % of control
- T/C (dose: 12.5 mg/kg/injection, schedule: Q01DX009 (ip), vehicle: water): 100 % of control
- T/C (dose: 12.5 mg/kg/injection, schedule: Q04DX003 (ip), vehicle: water): 100 % of control
- T/C (dose: 25.0 mg/kg/injection, schedule: Q04DX003 (ip), vehicle: water): 105 % of control
- T/C (dose: 50.0 mg/kg/injection, schedule: Q04DX003 (ip), vehicle: water): 100 % of control
- T/C (dose: 100.0 mg/kg/injection, schedule: Q04DX003 (ip), vehicle: water): 100 % of control and 102 % of control
- T/C (dose: 200.0 mg/kg/injection, schedule: Q04DX003 (ip), vehicle: water): 101 % of control
- T/C (dose: 400.0 mg/kg/injection, schedule: Q04DX003 (ip), vehicle: water): 90 % of control

Structure (SMILES): C[n+]1c2ccccc2nc2c(N)cc(N)cc21
- T/C (dose: 4.8 mg/kg/injection, schedule: Q01DX009 (ip), vehicle: saline with Tween-80): 115 % of control
- T/C (dose: 7.3 mg/kg/injection, schedule: Q01DX009 (ip), vehicle: saline with Tween-80): 115 % of control
- T/C (dose: 26.0 mg/kg/injection, schedule: Q01DX009 (ip), vehicle: saline with Tween-80): 154 % of control
- T/C (dose: 41.0 mg/kg/injection, schedule: Q01DX009 (ip), vehicle: saline with Tween-80): 154 % of control
- T/C (dose: 41.0 mg/kg/injection, schedule: Q01DX009 (ip), vehicle: water): 185 % of control

Structure (SMILES): Cc1ncc(CO)c(C2NOCc3ccc(Cl)cc32)c1O (stereo not given)
- T/C [1]: 104 % of control
- T/C [2]: 86 % of control
- T/C (dose: 25.0 mg/kg/injection, schedule: Q04DX003 (ip), vehicle: Klucel (hydroxypropylcellulose) (HPC)): 111 % of control
- T/C [5]: 105 % of control
- T/C [6]: 122 % of control

Structure (SMILES): O=Nc1c(S(=O)(=O)O)cc2cc(S(=O)(=O)O)cc(O)c2c1O.[Cu+2]
- T/C (dose: 1.25 mg/kg/injection, schedule: Q04DX003 (ip), vehicle: saline): 97 % of control
- T/C (dose: 2.5 mg/kg/injection, schedule: Q04DX003 (ip), vehicle: saline): 91 % of control
- T/C (dose: 5.0 mg/kg/injection, schedule: Q04DX003 (ip), vehicle: saline): 115 % of control

Structure (SMILES): COc1cc(OC)c2c(O)c3c(c(-c4ccc5cc6c(c(O)c5c4O)C(=O)CC(C)(O)C6)c2c1)CC(C)OC3C (stereo not given)
- T/C (dose: 0.19 mg/kg/injection, schedule: Q01DX009 (ip), vehicle: olive oil, sesame oil, peanut oil): 106 % of control
- T/C (dose: 0.39 mg/kg/injection, schedule: Q01DX009 (ip), vehicle: olive oil, sesame oil, peanut oil): 91 % of control
- T/C (dose: 0.78 mg/kg/injection, schedule: Q01DX009 (ip), vehicle: olive oil, sesame oil, peanut oil): 106 % of control
- T/C (dose: 1.56 mg/kg/injection, schedule: Q01DX009 (ip), vehicle: olive oil, sesame oil, peanut oil): 102 % of control and 111 % of control

Structure (SMILES): CCCCCCCCCCCCCCCCCCOC(=O)Cc1ccc(N(CCCl)CCCl)cc1
- T/C (dose: 50.0 mg/kg/injection, schedule: Q04DX002 (ip), vehicle: Klucel (hydroxypropylcellulose) (HPC)): 123 % of control
- T/C (dose: 66.0 mg/kg/injection, schedule: Q01DX007 (ip), vehicle: Klucel (hydroxypropylcellulose) (HPC)): 153 % of control
- T/C (dose: 100.0 mg/kg/injection, schedule: Q01DX007 (ip), vehicle: Klucel (hydroxypropylcellulose) (HPC)): 165 % of control
- T/C [7]: 150 % of control
- T/C (dose: 100.0 mg/kg/injection, schedule: Q04DX002 (ip), vehicle: Klucel (hydroxypropylcellulose) (HPC)): 104 % of control
- T/C [6]: 113 % of control
- T/C (dose: 150.0 mg/kg/injection, schedule: Q01DX007 (ip), vehicle: Klucel (hydroxypropylcellulose) (HPC)): 173 % of control
- T/C (dose: 180.0 mg/kg/injection, schedule: Q04DX003 (ip), vehicle: saline with Tween-80): 100 % of control
- T/C [8]: 118 % of control
- T/C [4]: 123 % of control
- T/C (dose: 400.0 mg/kg/injection, schedule: Q04DX002 (ip), vehicle: Klucel (hydroxypropylcellulose) (HPC)): 180 % of control
- T/C (dose: 400.0 mg/kg/injection, schedule: Q04DX003 (ip), vehicle: Klucel (hydroxypropylcellulose) (HPC)): 250 % of control and 159 % of control
- T/C [9]: 166 % of control
- T/C (dose: 600.0 mg/kg/injection, schedule: Q04DX003 (ip), vehicle: Klucel (hydroxypropylcellulose) (HPC)): 208 % of control
- T/C (dose: 600.0 mg/kg/injection, schedule: Q04DX003 (ip), vehicle: saline with Tween-80): 150 % of control

Structure (SMILES): CN(N=O)P(=O)(Nc1ccccc1)Nc1ccccc1
- T/C (dose: 25.0 mg/kg/injection, schedule: Q04DX003 (ip), vehicle: other): 100 % of control
- T/C (dose: 50.0 mg/kg/injection, schedule: Q04DX003 (ip), vehicle: other): 100 % of control
- T/C (dose: 100.0 mg/kg/injection, schedule: Q04DX003 (ip), vehicle: other): 95 % of control

Structure (SMILES): CC(=O)N(N=Nc1ccccc1)c1cccc2ccccc12
- T/C [2]: 109 % of control and 113 % of control
- T/C (dose: 35.0 mg/kg/injection, schedule: Q01DX009 (ip), vehicle: Klucel (hydroxypropylcellulose) (HPC)): 103 % of control
- T/C [3]: 107 % of control
- T/C [5]: 100 % of control
- T/C [6]: 110 % of control

Structure (SMILES): O=c1ccc(=O)c2c(=O)c3ccccc3c(=O)c1=2
- T/C [2]: 104 % of control
- T/C [3]: 103 % of control
- T/C [5]: 95 % of control
- T/C [7]: 99 % of control
- T/C [6]: 104 % of control
- T/C [8]: 88 % of control

Structure (SMILES): COC(=O)c1cncc(C(=O)OC)c1
- T/C (dose: 100.0 mg/kg/injection, schedule: Q04DX003 (ip), vehicle: saline with Tween-80): 100 % of control
- T/C (dose: 176.0 mg/kg/injection, schedule: Q04DX003 (ip), vehicle: saline with Tween-80): 100 % of control
- T/C (dose: 200.0 mg/kg/injection, schedule: Q04DX003 (ip), vehicle: saline with Tween-80): 95 % of control
- T/C (dose: 264.0 mg/kg/injection, schedule: Q04DX003 (ip), vehicle: saline with Tween-80): 100 % of control
- T/C [9]: 100 % of control

Structure (SMILES): O=C1CCCC2C3CC(CN12)C1CC(O)CCN1C3 (stereo not given)
- T/C (dose: 20.0 mg/kg/injection, schedule: Q01DX010 (ip), vehicle: saline): 90 % of control
- T/C (dose: 40.0 mg/kg/injection, schedule: Q01DX010 (ip), vehicle: saline): 100 % of control
- T/C (dose: 80.0 mg/kg/injection, schedule: Q01DX010 (ip), vehicle: saline): 100 % of control

From PubChem BioAssay AID328 (DTP/NCI, 2004)
